Reference: US7935482B2, “Gene expression profiling for identification monitoring and treatment of rheumatoid arthritis” (Source Precision Medicine, Inc., priority 2005, dated 2011)

Key:
[1] = tested on: Inflammation Gene Expression Panel (inflammation index); test: Inflammation index from whole-blood Gene Expression Profile of RA patients under therapy; format: in vivo, human; conditions: for inflammation index compared to normal: clinically stable RA patients, 10 per treatment group, FIGS. 9-11, Remicade: all but one of the patients
Source text: The values Ci and P(i) may be determined in a number of ways, so that the index I is informative of the pertinent biological condition. One way is to apply statistical techniques, such as latent class modeling, to the profile data sets to correlate clinical data or experimentally derived data, or other data pertinent to the biological condition. In this connection, for example, may be employed the software from Statistical Innovations, Belmont, Mass., called Latent Gold®. Alternatively, other simpler modeling techniques may be employed in a manner known in the art. The index function for inflammation may be constructed, for example, in a manner that a greater degree of inflammation (as determined by the profile data set for the Inflammation Gene Expression Panel included in Tables 1 and 2) correlates with a large value of the index function. In a simple embodiment, therefore, each P(i) may be +1 or −1, depending on whether the constituent increases or decreases with increasing inflammation. As discussed in further detail below, a meaningful inflammation index that is proportional to the expression, referred to herein as IR-105, was constructed as follows: ¼{IL1A}+¼{IL1B}+¼{TNF}+¼{INFG}[…],
FIG. 4A further illustrates the consistency of inflammatory gene expression, illustrated here with respect to 7 loci of (of the Inflammation Gene Expression Panel included in Tables 1 and 2), in a set of 44 normal, undiagnosed blood donors. For each individual locus is shown the range of values lying within ±2 standard deviations of the mean expression value, which corresponds to 95% of a normally distributed population. Notwithstanding the great width of the confidence interval (95%), the measured gene expression value (ΔCt)—remarkably—still lies within 10% of the mean, regardless of the expression level involved. As described in further detail below, for a given biological condition an index can be constructed to provide a measurement of the condition. This is possible as a result of the conjunction of two circumstances: (i) there is a remarkable consistency of Gene Expression Profiles with respect to a biological condition across a population and (ii) there can be employed procedures that provide substantially reproducible measurement of constituents in a Gene Expression Panel giving rise to a Gene Expression Profile, under measurement conditions wherein specificity and efficiencies of amplification for all constituents of the panel are substantially similar and which therefore provides a measurement of a biological condition. Accordingly, a function of the expression values of representative constituent loci of FIG. 4A is here used to generate an inflammation index value, which is normalized so that a reading of 1 corresponds to constituent expression values of healthy subjects, as shown in the right-hand portion of FIG. 4A.
FIG. 4C illustrates the use of the same index as FIG. 4B, where the inflammation median for a normal population of subjects has been set to zero and both normal and diseased subjects are plotted in standard deviation units relative to that median. An inflammation index value was determined for each member of a normal, undiagnosed population of 70 individuals (black bars). The resulting distribution of index values, shown in FIG. 4C, can be seen to approximate closely a normal distribution. Similarly, index values were calculated for individuals from two diseased population groups, (1) rheumatoid arthritis patients treated with methotrexate (MTX) who are about to change therapy to more efficacious drugs (e.g., TNF inhibitors)(hatched bars), and (2) rheumatoid arthritis patients treated with disease modifying anti-rheumatoid drugs (DMARDS) other than MTX, who are about to change therapy to more efficacious drugs (e.g., MTX). […] This figure thus illustrates the utility of an index to derived from Gene Expression Profile data to evaluate disease status and to provide an objective and quantifiable treatment objective. […]

[2] = tested on: Inflammation Gene Expression Panel; test: Quantitative RT-PCR gene expression in whole blood of treated RA patients relative to normal mean; format: in vivo, human; conditions: 22 patients pooled
Source text: For measuring the amount of a particular RNA in a sample, methods known to one of ordinary skill in the art were used to extract and quantify transcribed RNA from a sample with respect to a constituent of a Gene Expression Panel. (See detailed protocols below. Also see PCT application publication number WO 98/24935 herein incorporated by reference for RNA analysis protocols). Briefly, RNA is extracted from a sample such as a tissue, body fluid, or culture medium in which a population of cells of a subject might be growing. For example, cells may be lysed and RNA eluted in a suitable solution in which to conduct a DNAse reaction. First strand synthesis may be performed using a reverse transcriptase. Gene amplification, more specifically quantitative PCR assays, can then be conducted and the gene of interest calibrated against an internal marker such as 18S rRNA (Hirayama et al., Blood 92, 1998: 46-52). Any other endogenous marker can be used, such as 28S-25S rRNA and 5S rRNA. Samples are measured in multiple replicates, for example, 3 replicates. In an embodiment of the invention, quantitative PCR is performed using amplification, reporting agents and instruments such as those supplied commercially by Applied Biosystems (Foster City, Calif.). Given a defined efficiency of amplification of target transcripts, the point (e.g., cycle number) that signal from amplified target template is detectable may be directly related to the amount of specific message transcript in the measured sample. Similarly, other quantifiable signals such as fluorescence, enzyme activity, disintegrations per minute, absorbance, etc., when correlated to a known concentration of target templates (e.g., a reference standard curve) or normalized to a standard with limited variability can be used to quantify the number of target templates in an unknown sample.
As part of a larger international study involving patients with rheumatoid arthritis, the subject was followed over a twelve-week period. The subject was enrolled in the study because of a failure to respond to conservative drug therapy for rheumatoid arthritis and a plan to change therapy and begin immediate treatment with a TNF-inhibiting compound. Blood was drawn from the subject prior to initiation of new therapy (visit 1). After initiation of new TNF-inhibiting therapy, blood was drawn at 4 weeks post change in therapy (visit 2), 8 weeks (visit 3), and 12 weeks (visit 4) following the start of new therapy. Blood was collected using the PAXgene Blood RNA System™, held at room temperature for two hours and then frozen at −30° C.
Frozen samples were shipped to the central laboratory at Source Precision Medicine, the assignee herein, in Boulder, Colo. for determination of expression levels of genes in the 48-gene inflammation gene expression panel included in Tables 1 and 2. The blood samples were thawed and RNA extracted according to the manufacturer's recommended procedure. RNA was converted to cDNA and the level of expression of the 48 inflammatory genes was determined. Expression results are shown for 11 of the 48 loci in FIG. 3. […] Similarly, gene expression levels at each of the subsequent physician visits for each locus are compared to the same normal average value. […] In each visit following the change in the therapy, the level of inflammatory gene expression for 10 of the 11 loci is closer to the cognate locus average previously determined for the normal (i.e., undiagnosed, healthy) patient set. […]

[3] = Clinical assessment of RA patients during therapy (DAS, SJC, TJ, MDAD, HAQ); format: in vivo, human; conditions: 22 RA patients pooled over both regimens, FIG. 23; for Disease Activity Score (DAS): baseline 6.51
[4] = human, in vivo; cited from earlier work
[5] = end of the study, 12 genes examined, FIG. 17

CN(Cc1cnc2nc(N)nc(N)c2n1)c1ccc(C(=O)N[C@@H](CCC(=O)O)C(=O)O)cc1 [methotrexate]
distribution of inflammation index values in comparison to the normal distribution ([1]; RA patients about to change therapy to more efficacious drugs, FIG. 4C): skewed upward
inflammation index compared to normal [1]: elevated compared to normal

anakinra [kineret]
number of genes still over-expressed to some extent [2, 5]: 7
number of genes transitioned to the under-expressed category [2, 5]: 4
expression of PTGS2 (COX2) versus normal ([2]; end of the study, FIG. 17): not statistically significantly different from normal
values of CD19 expression versus normals ([2]; from the start of the study until the end, FIG. 17): all under-expressed
relative expression of the genes overexpressed at start (11 of 12 genes) versus normals ([2]; week 4, normals n=69, FIG. 17): still over-expressed at week 4 but less so
joint counts, MD assessment and patient self-score over the course of the study [3]: all went down
Disease Activity Score (DAS) ([3]; after 4 weeks): 5.35
Disease Activity Score (DAS) ([3]; end of the study): 4.88

etanercept [Enbrel]
patients with inflammation index in the normal range ([1]; 10 clinically stable RA patients, FIG. 10): 80%
inflammation index compared to normal [1]: comes much closer to normal

infliximab [Remicade]
abnormally low inflammation index in two of the patients ([1]; 10 clinically stable RA patients, FIG. 11): suggesting an immunosuppressive response
inflammation index compared to normal [1]: at or below normal
association with serious infections [4]: associated with serious infections in some subjects
